The test system of assay [1] is NO production induced by INF-γ in mouse macrophages. The conditions noted are these: previously reported (Honda et al.); read-out: IC50 (level); cited from earlier work.
Assay [2] concerns human tumor cell lines, mouse 3T3-L1 fibroblasts, mouse macrophages. The following applies: cell culture; previously reported (Suh et al., 1999); cited from earlier work.
For assay [3], the system named is NO production induced by INF-γ in mouse macrophages. The experiment in a line: Inhibition of NO production induced by IFN-γ in mouse macrophages (Griess reaction). In kind it is cell-based. As to the method:
The procedure for determining IC50 on NO production induced by INF-γ in mouse macrophages is as follows. Macrophages were harvested from female mice injected intraperitoneally four days previously with 4% thioglycollate. These cells were seeded in 96-well tissue culture plates and incubated with 4 ng/mL INF-γ in the presence or absence of inhibitory test compounds. After 48 hours NO production, measured as […] by the Griess reaction, was determined. This method is described fully by Ding et al. (1990) and Bogdan and Ding, (1992).

For assay [4], the target named is T1, peroxisome proliferator-activated receptor γ (PPARγ) (Homo sapiens, UniProt P37231).
T1 sequence (P37231 1-505): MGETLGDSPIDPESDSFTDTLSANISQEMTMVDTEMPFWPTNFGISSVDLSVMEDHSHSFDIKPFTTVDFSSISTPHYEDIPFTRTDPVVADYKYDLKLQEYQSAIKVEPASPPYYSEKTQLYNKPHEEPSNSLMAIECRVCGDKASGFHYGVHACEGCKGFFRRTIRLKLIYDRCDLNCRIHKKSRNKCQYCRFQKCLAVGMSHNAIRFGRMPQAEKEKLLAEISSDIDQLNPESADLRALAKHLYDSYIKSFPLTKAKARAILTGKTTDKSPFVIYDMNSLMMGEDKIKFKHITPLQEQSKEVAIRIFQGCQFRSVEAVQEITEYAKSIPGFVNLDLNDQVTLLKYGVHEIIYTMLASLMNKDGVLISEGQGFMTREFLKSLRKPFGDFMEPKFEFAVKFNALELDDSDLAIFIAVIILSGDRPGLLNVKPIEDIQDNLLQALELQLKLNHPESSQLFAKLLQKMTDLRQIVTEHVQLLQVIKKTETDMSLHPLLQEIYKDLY
The following applies: Wang et al., 2000; cited from earlier work.

[5] abbreviates: Mus musculus, Macrophage, 48 h, Table 1; NO production induced by IFN-γ; tested 0.01 pM-1 μM (10-fold dilutions); average of several separate experiments.
Setting [6] is: Mus musculus, Macrophage; Table 1; NO production induced by IFN-γ, 48 h; tested 0.01 pM-1 μM (10-fold dilutions); average of several separate experiments.
The mark [7] stands for this setting: SAR on substituents at C-17, Tables 1-3.
Setting [8] is: Mus musculus, Macrophage; Table 2; NO production induced by IFN-γ, 48 h; tested 0.01 pM-1 μM (10-fold dilutions); average of several separate experiments.

Like-named read-outs stand apart in the source and are kept apart here.

What is called IC50 is the concentration that gives 50% inhibition. As to `COC(=O)[C@]12CCC(C)(C)C[C@H]1[C@H]1C(=O)C=C3[C@@]4(C)C=C(C#N)C(=O)C(C)(C)[C@@H]4CC[C@@]3(C)[C@]1(C)CC2` [CDDO methyl ester], in assay [1], the IC50 was approximately 0.1 nM. Turning to `CC1(C)CC[C@]2(C(=O)O)CC[C@]3(C)[C@H](C(=O)C=C4[C@@]5(C)C=C(C#N)C(=O)C(C)(C)[C@@H]5CC[C@]43C)[C@@H]2C1` [CDDO, 2-cyano-3,12-dioxooleana-1,9(11)-dien-28-oic acid], the “concentrations at which potencies were found” value in assay [2] is 10^−6 to 10^−9 M. Further, the IC50 is 0.44 nM in assay [3] (setting [5]); 0.7 nM in assay [3] (Mus musculus, Macrophage, 48 h, Table 3; NO production induced by IFN-γ; tested 0.01 pM-1 μM (10-fold dilutions); average of several separate experiments); approximately 0.1 nM in assay [1]. Further, in assay [4], the “ligand for PPARγ” value was “ligand”. In assay [3] (setting [6]), `CC1(C)CC[C@]2(C#N)CC[C@]3(C)[C@H](C(=O)C=C4[C@@]5(C)C=C(C#N)C(=O)C(C)(C)[C@@H]5CC[C@]43C)[C@@H]2C1` [Compound 1, 2-cyano-3,12-dioxooleana-1,9(11)-dien-28-onitrile] displayed an IC50 of 0.0035 nM. For the same compound, in assay [3] (setting [7]), the “potency compared with CDDO (SAR statement)” value (from here on “potency compared with CDDO”) is reported as “much more potent”.

In the case of `CC(=O)OC[C@H]1OC(OC(=O)[C@]23CCC(C)(C)CC2C2C(=O)C=C4[C@@]5(C)C=C(C#N)C(=O)C(C)(C)[C@@H]5CC[C@@]4(C)[C@]2(C)CC3)[C@H](OC(C)=O)C(OC(C)=O)[C@@H]1OC(C)=O` (stereo partly shown) [Compound 2], the IC50 in assay [3] (setting [6]) is 0.07 nM. `CC1(C)CC[C@]2(C(N)=O)CC[C@]3(C)[C@H](C(=O)C=C4[C@@]5(C)C=C(C#N)C(=O)C(C)(C)[C@@H]5CC[C@]43C)[C@@H]2C1` [Compound 3]: the IC50 in assay [3] (setting [6]) amounted to 0.098 nM. Besides, in assay [3] (setting [7]), the “potency compared with CDDO” value was “greater potency than CDDO”. `Cc1cn(C(=O)[C@]23CCC(C)(C)CC2C2C(=O)C=C4[C@@]5(C)C=C(C#N)C(=O)C(C)(C)[C@@H]5CC[C@@]4(C)[C@]2(C)CC3)cn1` (stereo partly shown) [Compound 10, 1-(2-cyano-3,12-dioxooleana-1,9(11)-dien-28-oyl)-4-methylimidazole]: in assay [3] (setting [7]), the “potency compared with CDDO” value was “greatest potency”. In turn, `CCc1nccn1C(=O)[C@]12CCC(C)(C)CC1C1C(=O)C=C3[C@@]4(C)C=C(C#N)C(=O)C(C)(C)[C@@H]4CC[C@@]3(C)[C@]1(C)CC2` (stereo partly shown) [Compound 11] had an IC50 in assay [3] (setting [8]) of 0.1 nM. The same measure, in the same setting: next, `CCCc1nccn1C(=O)[C@]12CCC(C)(C)CC1C1C(=O)C=C3[C@@]4(C)C=C(C#N)C(=O)C(C)(C)[C@@H]4CC[C@@]3(C)[C@]1(C)CC2` (stereo partly shown) [Compound 12]: 0.02 nM; `Cc1cn(C(=O)[C@]23CCC(C)(C)CC2C2C(=O)C=C4[C@@]5(C)C=C(C#N)C(=O)C(C)(C)[C@@H]5CC[C@@]4(C)[C@]2(C)CC3)c(C)n1` (stereo partly shown) [Compound 13]: 0.1 nM; `CC1(C)CC[C@]2(C(=O)n3ccnc3-c3ccccc3)CC[C@]3(C)C(C(=O)C=C4[C@@]5(C)C=C(C#N)C(=O)C(C)(C)[C@@H]5CC[C@]43C)C2C1` (stereo partly shown) [Compound 14]: 0.05 nM.

`CC1(C)CC[C@]2(C(=O)n3cnc(Br)c3)CC[C@]3(C)C(C(=O)C=C4[C@@]5(C)C=C(C#N)C(=O)C(C)(C)[C@@H]5CC[C@]43C)C2C1` (stereo partly shown) [Compound 15] came in with an IC50 in assay [3] (setting [8]) of 0.03 nM. As for `CC(=O)OC[C@H]1O[C@@H](OC(=O)[C@]23CCC(C)(C)C[C@H]2[C@H]2C(=O)C=C4[C@@]5(C)C=C(C#N)C(=O)C(C)(C)[C@@H]5CC[C@@]4(C)[C@]2(C)CC3)[C@H](OC(C)=O)C(OC(C)=O)[C@H]1OC(C)=O` (stereo partly shown) [Compound 18], in assay [3] (Mus musculus, Macrophage; Table 3; NO production induced by IFN-γ, 48 h; tested 0.01 pM-1 μM (10-fold dilutions); average of several separate experiments), it took 0.05 nM to reach half-maximal inhibition (IC50). The compound `C[C@@H]1C[C@H]2[C@@H]3CCC4=CC(=O)C=C[C@]4(C)[C@@]3(F)[C@@H](O)C[C@]2(C)[C@@]1(O)C(=O)CO` [Dexamethasone, reference compound] gave an IC50 in assay [3] (setting [6]) of 0.1 nM.

As to `CC1(C)CC[C@]2(C(=O)O)CC[C@]3(C)C(=CC[C@@H]4[C@@]5(C)CC[C@H](O)C(C)(C)[C@@H]5CC[C@]43C)[C@@H]2C1` [Oleanolic acid (OA), Oleanolic acid, reference compound], the IC50 in assay [3] (setting [5]) is more than 40000 nM; in assay [3] (Mus musculus, Macrophage, 48 h, Table 2; NO production induced by IFN-γ; tested 0.01 pM-1 μM (10-fold dilutions); average of several separate experiments), more than 40000 nM.

Take `COC(=O)C12CCC(C)(C)CC1C1C(=O)C=C3C4(C)C=C(C(=O)O)C(=O)C(C)(C)C4CCC3(C)C1(C)CC2` (stereo not shown) [methyl 2-carboxy-3,12-dioxooleana-1,9(11)-dien-28-oate]: in assay [1], the IC50 was approximately 0.1 nM.

The record behind these values is patent US6974801B2, “Inhibitors and methods of use thereof” (The Trustees of Dartmounth College, priority 2002, dated 2005).
